In patent US8389541B2, “Inhibitors of protein tyrosine kinase activity” (MethylGene Inc., priority 2007, dated 2013):

Target: T1, VEGF receptor KDR (Homo sapiens, UniProt P35968)
T1 construct: made in house; host or cells: Sf9 cells (Spodoptera frugiperda), baculovirus
Experiment: In vitro receptor tyrosine kinase assay (DELFIA), VEGF receptor KDR
Assay type: biochemical
Conditions: GST-VEGFR2 806-1356, 0.6 uM ATP; read-out: VEGFR IC50
Description: In the case of VEGF receptor KDR a 1.6-kb cDNA corresponding to the catalytic domain of VEGFR2 or KDR (Genbank accession number AF035121 amino acid 806 to 1356) is cloned into the Pst I site of the pDEST20 Gateway vector (Invitrogen) for the production of a GST-tagged version of that enzyme.
The GST-VEGFR2806-1356 protein is expressed in Sf9 cells (Spodoptera frugiperda) upon infection with recombinant baculovirus construct.
The supernatant is loaded onto a GST-agarose column (Sigma) equilibrated with PBS pH 7.3. Following a four column volume (CV) wash with PBS pH 7.3+1% Triton X-100 and 4 CV wash with buffer B (50 mM Tris pH 8.0, 20% glycerol and 100 mM NaCl), bound proteins are step eluted with 5 CV of buffer B supplemented with 5 mM DTT and 15 mM glutathion. […] Final GST-VEGFR2806-1356 protein preparations concentrations are about 0.7 mg/ml with purity approximating 70%.

T1 sequence (P35968 806-1356): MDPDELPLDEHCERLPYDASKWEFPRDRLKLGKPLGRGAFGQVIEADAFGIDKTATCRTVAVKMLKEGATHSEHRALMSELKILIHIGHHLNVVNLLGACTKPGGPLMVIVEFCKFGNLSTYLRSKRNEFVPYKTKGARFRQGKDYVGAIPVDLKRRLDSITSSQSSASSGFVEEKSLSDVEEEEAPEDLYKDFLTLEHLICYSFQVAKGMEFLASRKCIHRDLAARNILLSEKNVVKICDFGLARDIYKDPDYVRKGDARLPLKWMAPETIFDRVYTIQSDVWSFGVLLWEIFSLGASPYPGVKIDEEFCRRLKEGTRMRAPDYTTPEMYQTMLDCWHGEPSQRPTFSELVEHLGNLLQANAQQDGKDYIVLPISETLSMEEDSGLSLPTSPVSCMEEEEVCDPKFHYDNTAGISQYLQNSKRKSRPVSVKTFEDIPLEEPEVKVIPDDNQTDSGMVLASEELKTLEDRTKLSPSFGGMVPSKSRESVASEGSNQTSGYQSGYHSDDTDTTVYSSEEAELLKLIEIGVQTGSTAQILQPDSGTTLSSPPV

| SMILES | IC50 [µM] |
| --- | --- |
| COCCNCc1cccc(-c2cc3nccc(Oc4ccc(NC(=O)NC(=O)Cc5ccc(F)cc5)cc4F)c3s2)c1 | 0.25 to 0.5 |
| CS(=O)(=O)CCNCc1cccc(-c2cc3nccc(Oc4ccc(NC(=S)NC(=O)Cc5ccccc5)cc4F)c3s2)c1 | < 0.25 |
| COC[C@H](C)NCc1ccc(-c2cc3nccc(Oc4ccc(NC(=S)NC(=O)Cc5ccccc5)cc4F)c3s2)cc1 | < 0.25 |
| CS(=O)(=O)CCNCc1cccc(-c2cc3nccc(Oc4ccc(NC(=S)NC(=O)Cc5ccc(F)cc5)cc4F)c3s2)c1 | < 0.25 |

Results, then the compound that gave them:

| IC50 [µM] | SMILES |
| --- | --- |
| < 0.25 | COCCNCc1cccc(-c2cc3nccc(Oc4ccc(NC(=S)NC(=O)Cc5ccccc5OC)cc4F)c3s2)c1 |
| < 0.25 | COC[C@H](C)NCc1cccc(-c2cc3nccc(Oc4ccc(NC(=S)NC(=O)Cc5ccccc5)cc4F)c3s2)c1 |

System: A549 cells
Experiment: Wound healing assay in A549 cells (HGF-stimulated)
Assay type: cell-based
Conditions: Homo sapiens, last dose that inhibited gap closing by more than 25%, 24 h, read-out: A549 WOUND_HEALING IC50
Procedure: Wound healing assay in A549 cells. A549 cells (ATCC) are seeded in DMEM low glucose medium complemented with 10% FBS into 24-well plates at a density of 7.5×10^4 cells/well and grown to confluence (48 h). Inhibitors were added to the medium at a range of doses (0.00032-10 uM) for 3 h at which point a gap is introduced by scraping cells with a P1000 pipette tip. Cells are then stimulated to migrate by the addition of HGF (in the form of conditioned medium from 293T cells over-expressing the human HGF gene) and the culture is continued for 24 h. […] For the purpose of standardization, a control is carried on every assay plates.

| SMILES | IC50 [µM] |
| --- | --- |
| COCCNCc1cccc(-c2cc3nccc(Oc4ccc(NC(=O)NC(=O)Cc5ccc(F)cc5)cc4F)c3s2)c1 | > 1 |
| CS(=O)(=O)CCNCc1cccc(-c2cc3nccc(Oc4ccc(NC(=S)NC(=O)Cc5ccccc5)cc4F)c3s2)c1 | > 1 |
| COC[C@H](C)NCc1ccc(-c2cc3nccc(Oc4ccc(NC(=S)NC(=O)Cc5ccccc5)cc4F)c3s2)cc1 | 0.25 to 0.5 |
| CS(=O)(=O)CCNCc1cccc(-c2cc3nccc(Oc4ccc(NC(=S)NC(=O)Cc5ccc(F)cc5)cc4F)c3s2)c1 | > 1 |

The next lines start with the values.

| IC50 [µM] | SMILES |
| --- | --- |
| 0.25 to 0.5 | COCCNCc1cccc(-c2cc3nccc(Oc4ccc(NC(=S)NC(=O)Cc5ccccc5OC)cc4F)c3s2)c1 |
| 0.25 to 0.5 | COC[C@H](C)NCc1cccc(-c2cc3nccc(Oc4ccc(NC(=S)NC(=O)Cc5ccccc5)cc4F)c3s2)c1 |

System: DU145 cells
Experiment: Scatter assay in DU145 cells (HGF-stimulated)
Assay type: cell-based
Conditions: Homo sapiens, DU-145, last dose that created an inhibitory effect on scattering, 24 h, read-out: DU145 SCATT. INHIB IC50
Procedure: Scatter assays in DU145. The scatter assay is performed as described previously (Miura H, Nishimura K, Tsujimura A, Matsumiya K, Matsumoto K, Nakamura T, et al. Effects of hepatocyte growth factor on E-cadherin-mediated cell-cell adhesion in DU145 prostate cancer cells. Urology 2001; 58(6):1064-9) for DU145 prostate carcinoma cells with the indicated modifications. In brief, DU145 cells (ATCC) are seeded in 24-well plates at a density of 7×10^3 cells/well in MEM medium complemented with 10% FBS and cultured for 48 h, to allow the formation of small compact colonies of cells. Inhibitors are subsequently added at a range of doses (0.00032-10 uM) for 3 h. Cells are then stimulated to migrate by the addition of HGF (in the form of conditioned medium from 293T cells over-expressing the human HGF gene) and the culture is continued for another 24 h. The IC50 values is defined as the last dose that created an inhibitory effect on scattering. For the purpose of standardization a control is carried on every test plates for the DU145 scattering assays.

| SMILES | IC50 [µM] |
| --- | --- |
| COCCNCc1cccc(-c2cc3nccc(Oc4ccc(NC(=O)NC(=O)Cc5ccc(F)cc5)cc4F)c3s2)c1 | 0.25 to 0.5 |
| CS(=O)(=O)CCNCc1cccc(-c2cc3nccc(Oc4ccc(NC(=S)NC(=O)Cc5ccccc5)cc4F)c3s2)c1 | > 1 |
| COC[C@H](C)NCc1ccc(-c2cc3nccc(Oc4ccc(NC(=S)NC(=O)Cc5ccccc5)cc4F)c3s2)cc1 | 0.25 to 0.5 |
| CS(=O)(=O)CCNCc1cccc(-c2cc3nccc(Oc4ccc(NC(=S)NC(=O)Cc5ccc(F)cc5)cc4F)c3s2)c1 | > 1 |

The next lines start with the values.

| IC50 [µM] | SMILES |
| --- | --- |
| 0.25 to 0.5 | COCCNCc1cccc(-c2cc3nccc(Oc4ccc(NC(=S)NC(=O)Cc5ccccc5OC)cc4F)c3s2)c1 |
| 0.25 to 0.5 | COC[C@H](C)NCc1cccc(-c2cc3nccc(Oc4ccc(NC(=S)NC(=O)Cc5ccccc5)cc4F)c3s2)c1 |

Target: T2, c-Met (Homo sapiens, UniProt P08581)
T2 construct: endogenous in cells; host or cells: MKN45 gastric carcinoma cells
Experiment: Inhibition of c-Met phosphorylation in MKN45 cells (direct ELISA)
Assay type: cell-based
Conditions: 3 h treatment, read-out: CMET ELISA IN MKN45 IC50
Description: The following assay is used to determine inhibition of c-Met phosphorylation.
The c-Met receptor is expressed in numerous cancer cell lines derived from tumors of epithelial origin. In MKN45 gastric carcinoma cells the c-Met gene is amplified, resulting in several-fold overexpression of the receptor and its constitutive activation. For this reason constitutively high levels of ERK1/2 are also detected in these cells, independently of HGF-added stimulation (Smolen G A, Sordella R, Muir B, Mohapatra G, Barmettler A, Archibald H, et al. Amplification of MET may identify a subset of cancers with extreme sensitivity to the selective tyrosine kinase inhibitor PHA-665752. Proc Natl Acad Sci USA 2006). We have developed a sensitive method to follow c-Met phosphorylation in these cells. In previous studies with earlier generation c-Met inhibitors, we established that the IC50s for the inhibition of c-Met phosphorylation were identical using this novel ELISA approach and standard western blot procedure, with antibodies directed against the activating autocatalysis tyrosine residues of c-MET (Tyr Y1230-34-35).
Cell treatments: MKN45 cells are seeded into wells of 96-well plates at a density of 3×10^4 cells/well in RPMI medium supplemented with 10% FBS. HA-TPR-RON expressing 293T (clone 18) cells are seeded into wells of 96-well plates at a density of 3×10^4 cells/well in DMEM medium supplemented with 10% FBS. Cells are grown for 48 h prior to treatments with compounds of interest. Inhibitors are added to the medium in triplicate wells at the indicated doses. After 3 h of treatment, media is aspirated and cells are lysed by one freeze-thaw cycle in 50 μL/well hypotonic lysis buffer (25 mM HEPES pH 7.5, 10 mM NaCl with 1 mM 4-(2-aminoethyl)benzenesulfonyl fluoride hydrochloride, 200 μM sodium orthovanadate, 1 mM sodium fluoride, 10 μg/mL of leupeptin, 10 μg/mL of aprotinin/mL, 1 μg/mL of pepstatin and 50 μg/mL Na-p-tosyl-L-lysine chloromethyl ketone hydrochloride.
Detection of phosphorylated c-Met by direct ELISA: Lysate samples (5 μL) from wells of treatment plates are transferred to 80 μL of binding buffer (25 mM HEPES pH 7.5, 200 mM NaCl) in wells of high binding white polysterene 96-well plates (Corning). After an overnight protein binding incubation at 4° C., lysates are aspirated and wells are blocked for 1 h at 37° C. in TBST supplemented with 5% BSA. Plates are incubated with the primary antibodies anti-phospho-Tyrosine (Millipore, 4G10) diluted 1/15000 in TBST supplemented with 5% BSA for 1 h at room temperature. Plates are washed 3 times on a plate washer (SkanWasher, Molecular Devises), and incubated with the reporter antibody […] (Sigma) diluted 1/15000 in TBST supplemented with 5% BSA, for 1 h at room temperature. Plates are washed 3 times with TBST using on a plate washer and subsequently incubated with chemiluminescent substrate solution (ECL, Roche). Luminescence signal is captured on a Polar Star Optima apparatus (BMG LabTech).
Average values of the triplicate samples are used to prepare IC50 curves using a 4-parameter fit model. These curves are calculated using, for example, GraFit 5.0 software. For assay standardization purpose, an internal control is included on each experimental test plate.

T2 sequence (P08581 25-1390): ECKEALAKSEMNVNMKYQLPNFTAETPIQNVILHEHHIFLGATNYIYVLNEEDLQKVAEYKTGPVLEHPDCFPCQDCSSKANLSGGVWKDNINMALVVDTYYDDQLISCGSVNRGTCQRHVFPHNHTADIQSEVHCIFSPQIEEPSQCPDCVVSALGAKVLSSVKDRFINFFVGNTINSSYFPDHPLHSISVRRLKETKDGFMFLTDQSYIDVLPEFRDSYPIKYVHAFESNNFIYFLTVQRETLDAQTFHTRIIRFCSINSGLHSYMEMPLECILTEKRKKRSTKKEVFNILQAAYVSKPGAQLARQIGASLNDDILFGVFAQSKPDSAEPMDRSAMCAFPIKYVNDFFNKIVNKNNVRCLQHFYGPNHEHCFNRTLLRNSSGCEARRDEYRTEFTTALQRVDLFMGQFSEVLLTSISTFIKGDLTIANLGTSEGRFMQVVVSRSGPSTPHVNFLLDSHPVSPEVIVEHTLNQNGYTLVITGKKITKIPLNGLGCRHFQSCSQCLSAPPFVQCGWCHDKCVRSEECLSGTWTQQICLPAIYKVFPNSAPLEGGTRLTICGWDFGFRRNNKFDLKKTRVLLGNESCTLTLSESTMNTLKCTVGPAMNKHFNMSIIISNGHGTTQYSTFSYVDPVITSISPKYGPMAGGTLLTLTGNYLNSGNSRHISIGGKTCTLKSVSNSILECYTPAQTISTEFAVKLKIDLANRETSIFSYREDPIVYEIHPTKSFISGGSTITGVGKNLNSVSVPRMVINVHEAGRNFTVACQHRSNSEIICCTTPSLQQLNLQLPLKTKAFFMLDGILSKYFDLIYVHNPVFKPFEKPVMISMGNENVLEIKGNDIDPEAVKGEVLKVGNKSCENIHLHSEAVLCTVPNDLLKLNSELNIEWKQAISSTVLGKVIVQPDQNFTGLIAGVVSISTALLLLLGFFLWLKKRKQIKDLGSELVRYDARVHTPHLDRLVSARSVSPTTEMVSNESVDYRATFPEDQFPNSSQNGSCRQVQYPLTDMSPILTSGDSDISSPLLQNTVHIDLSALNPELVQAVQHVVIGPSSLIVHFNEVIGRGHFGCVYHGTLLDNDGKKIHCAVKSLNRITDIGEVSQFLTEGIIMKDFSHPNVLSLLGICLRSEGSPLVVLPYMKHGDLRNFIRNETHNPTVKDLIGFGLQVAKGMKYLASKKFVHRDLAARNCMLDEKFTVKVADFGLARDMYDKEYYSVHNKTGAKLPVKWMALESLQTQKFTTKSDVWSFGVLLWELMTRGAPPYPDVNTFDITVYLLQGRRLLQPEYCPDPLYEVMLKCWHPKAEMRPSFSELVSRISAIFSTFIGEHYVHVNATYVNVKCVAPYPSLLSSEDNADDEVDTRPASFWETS

| SMILES | IC50 [µM] |
| --- | --- |
| COCCNCc1cccc(-c2cc3nccc(Oc4ccc(NC(=O)NC(=O)Cc5ccc(F)cc5)cc4F)c3s2)c1 | 0.25 to 0.5 |
| CS(=O)(=O)CCNCc1cccc(-c2cc3nccc(Oc4ccc(NC(=S)NC(=O)Cc5ccccc5)cc4F)c3s2)c1 | < 0.25 |
| COC[C@H](C)NCc1ccc(-c2cc3nccc(Oc4ccc(NC(=S)NC(=O)Cc5ccccc5)cc4F)c3s2)cc1 | 0.25 to 0.5 |
| CS(=O)(=O)CCNCc1cccc(-c2cc3nccc(Oc4ccc(NC(=S)NC(=O)Cc5ccc(F)cc5)cc4F)c3s2)c1 | < 0.25 |

Now from value to compound:

| IC50 [µM] | SMILES |
| --- | --- |
| < 0.25 | COCCNCc1cccc(-c2cc3nccc(Oc4ccc(NC(=S)NC(=O)Cc5ccccc5OC)cc4F)c3s2)c1 |
| < 0.25 | COC[C@H](C)NCc1cccc(-c2cc3nccc(Oc4ccc(NC(=S)NC(=O)Cc5ccccc5)cc4F)c3s2)c1 |

Target: recombinant human c-Met/HGF receptor (Homo sapiens, UniProt P08581)
Experiment: In vitro receptor tyrosine kinase assay (DELFIA), c-Met/HGF receptor
Conditions: not given

Sequence of recombinant human c-Met/HGF receptor (P08581 1078-1337): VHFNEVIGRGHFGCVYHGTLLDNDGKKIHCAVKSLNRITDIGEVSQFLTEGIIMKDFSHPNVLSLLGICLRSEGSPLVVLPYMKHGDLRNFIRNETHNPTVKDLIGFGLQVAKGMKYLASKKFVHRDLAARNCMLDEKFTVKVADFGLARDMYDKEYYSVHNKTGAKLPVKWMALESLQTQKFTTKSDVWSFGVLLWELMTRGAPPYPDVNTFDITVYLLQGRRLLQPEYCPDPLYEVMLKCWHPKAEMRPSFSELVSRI

| SMILES | IC50 [µM] |
| --- | --- |
| COCCNCc1cccc(-c2cc3nccc(Oc4ccc(NC(=O)NC(=O)Cc5ccc(F)cc5)cc4F)c3s2)c1 | < 0.25 |
| CS(=O)(=O)CCNCc1cccc(-c2cc3nccc(Oc4ccc(NC(=S)NC(=O)Cc5ccccc5)cc4F)c3s2)c1 | < 0.25 |
| COC[C@H](C)NCc1ccc(-c2cc3nccc(Oc4ccc(NC(=S)NC(=O)Cc5ccccc5)cc4F)c3s2)cc1 | < 0.25 |
| CS(=O)(=O)CCNCc1cccc(-c2cc3nccc(Oc4ccc(NC(=S)NC(=O)Cc5ccc(F)cc5)cc4F)c3s2)c1 | < 0.25 |

The remaining lines, values ahead:

| IC50 [µM] | SMILES |
| --- | --- |
| < 0.25 | COCCNCc1cccc(-c2cc3nccc(Oc4ccc(NC(=S)NC(=O)Cc5ccccc5OC)cc4F)c3s2)c1 |
| < 0.25 | COC[C@H](C)NCc1cccc(-c2cc3nccc(Oc4ccc(NC(=S)NC(=O)Cc5ccccc5)cc4F)c3s2)c1 |
